Earlier results as cited in patent US7780647B2, “Medical device with therapeutic agents” (Cook Incorporated, priority 2003, dated 2010).

Experiments:
[1] = test system: restenosis of human coronary arteries; details: following stent use
[2] = test system: smooth muscle cell proliferation; details: both in vitro and in vivo

In the case of `CC(=O)O[C@H]1C(=O)[C@@]2(C)[C@H]([C@H](OC(=O)c3ccccc3)[C@]3(O)C[C@H](OC(=O)[C@H](O)[C@@H](NC(=O)c4ccccc4)c4ccccc4)C(C)=C1C3(C)C)[C@]1(OC(C)=O)CO[C@@H]1C[C@@H]2O` [paclitaxel], the “restenosis of human coronary arteries” value [1] is given as “decrease restenosis” and the “smooth muscle cell proliferation” value [2] is given as “inhibits smooth muscle cell proliferation”.
